# Laboratory results published in US6429204B1, “Method of inhibiting cancer growth” (University of Miami, priority 1997, dated 2002).
# What was measured:
# C8161 cells = assay: C8161 cell proliferation (doubling time); format: cell-based, human; settings: 50 μg/mL; for Doubling Time: on plastic, DMSO 22 hr
# Description: Cell Culture and Maintenance: C8161 cells, a human melanoma cell line, were maintained in Dulbecco's modified Eagle's medium (DMEM; […] These cells were routinely screened for Mycoplasma contamination using the GenProbe Rapid Detection System (Fisher Scientific; Chicago, Ill.). Chemically Modified Tetracyclines: Fresh stock solutions of the chemically modified tetracycline compounds (2 mg/mL) were prepared for each experiment by hydrating in 2% dimethyl sulfoxide (DMSO)/water pH 10, then adjusting to pH 7.4 using 1.0 M HCl. […] Sigma Chem. Co.; control) or 50 μg/mL of doxycycline or the other CMTs (three wells on each plate per compound). […] The doubling time for C8161 cells in the presence of each compound was then determined and compared to the DMSO treated cells (control).
# TSU PR-1 = assay: Cytotoxicity GI50 (MTT and thymidine incorporation), TSU PR-1; format: cell-based; settings: Homo sapiens, TSU-Pr1
# Description: (§1) To confirm this observation, we compared the cytotoxicities of CMT-3 and doxycycline for a panel of common human prostate cancer cell lines. Cytotoxicity was measured using the MTT assay (see above) and a cellular thymidine incorporation assay as described by Lokeshwar et al. (1995a). The 50% growth inhibition (GI50) values obtained using both assays were identical. As shown in the data summarized in Table 3, below, CMT-3 was two- to eight-fold more cytotoxic than doxycycline.
# (§2) Growth inhibition was calculated from linear regression of the dose-response curves generated for each experiment using log(dose) vs. cell proliferation (% of control). Correlation coefficient (r) was always ≧0.95 (negative). Results are presented as Mean±SEM of at least three GI50 values calculated from each experiment.
# MAT LyLu = assay: Cytotoxicity GI50 (MTT and thymidine incorporation), MAT LyLu; format: cell-based; settings: Rattus norvegicus
# Description: as §1, §2
# Dunning MAT LyLu tumor [1] = assay: MAT LyLu tumor incidence, growth and metastasis, predosing 7 days before implant; format: in vivo, Copenhagen rats; settings: for tumor growth rate (time to reach tumor volume of 3 cm^3): 40 mg/kg predosing, animals with measurable tumors, control 15.9±2.0; for decrease in the number of lung metastases: summary b179, predosing context; for remission of palpable tumors (rats): two separate experiments
# Description: (§3) Tumor Generation and Treatment: Dunning MAT LyLu cells were harvested from culture flasks, and a 0.5 mL suspension containing from 2×10^5 to 2×10^6 cells/mL was inoculated into the dorsal flank of adult Copenhagen rats (Harlan Sprague Dawley, Indianapolis, Ind.). The rats weighed 250-300 g, and were 90-100 days old. Tumors were detected by palpating the skin around the site of injection starting 3 days following implant of the tumor cells (Lokeshwar et al. 1995a).
# (§4) Drug Treatment In Vivo: Doxycycline and CMT-3 were dissolved in a 2% aqueous solution of a soluble form of carboxymethyl cellulose (Sigma Cat. No. C-5678), and a fresh solution was made up daily. Rats were gavaged daily with 1 mL of the drug solution (concentrations specified below), or the vehicle (2% carboxymethyl cellulose). Tumor growth was recorded three times a week, and rats were weighed weekly. The effect of various treatments on tumor growth was monitored over time using calipers, and the volume approximated to an ellipsoid (i.e., volume=length×width×height×0.5236) (Lokeshwar et al. 1993b). Tumor growth rate was determined by regression analysis of tumor volume versus time, for each tumor-bearing rat. Mean tumor growth rate (time to reach a fixed volume) for each treatment group was then used to evaluate the statistical significance of treatment efficacy using the INSTAT statistical program (Ravitz Software, San Diego, Calif.). Rats were euthanized once the tumor volume reached ≧10 cm^3. At that time animals were necropsied, tumors and lungs were removed and fixed in Bouin's fixative. Macroscopic tumor foci on the lungs were counted under a dissecting microscope.
# In another series of experiments, we examined whether predosing host animals with the drugs would affect tumor growth and metastasis. Daily gavage of control or drugs (doxycycline or CMT-3; 40 mg/kg) was begun 7 days prior to the injections of the MAT LyLu tumor cells (2×10^5 cells/animal) and continued for a total of 21 days.
# Tumor growth rates were calculated from thrice-weekly measurement of tumor volume with linear regression analysis of log-transformed volume measurements (Dudak et al. 1996).
# [2] = MTS cytotoxicity assay, E-10; settings: human, E-10 clone of MDA-MB-231 breast carcinoma cells, percent cytotoxicity, two days
# Dunning MAT LyLu tumor [3] = assay: MAT LyLu tumor growth and lung metastasis, gavage from day of implant; format: in vivo, Copenhagen rats
# Description: as §3, §4
# CMT-3 and doxycycline were tested for antitumor activity in vivo. In this series of experiments, daily gavage of drugs was started on the same day on which tumor cells were implanted in the test animals. Tumor growth was initiated by sub cutis injection of 1×10^6 tumor cells.
# DU 145 = assay: Cytotoxicity GI50 (MTT and thymidine incorporation), DU 145; format: cell-based; settings: Homo sapiens
# Description: as §1, §2
# PC-3 = assay: Cytotoxicity GI50 (MTT and thymidine incorporation), PC-3; format: cell-based; settings: Homo sapiens
# Description: as §1, §2
# ALVA 101 = assay: Cytotoxicity GI50 (MTT and thymidine incorporation), ALVA 101; format: cell-based; settings: Homo sapiens
# Description: as §1, §2
# [4] = MTS cytotoxicity assay, COLO 205; settings: human, COLO 205 colon carcinoma cells, percent cytotoxicity, two days
# Description: A panel of chemically modified tetracycline compounds and doxycycline were tested for cytotoxicity against two carcinomas: COLO 205 (a human colon carcinoma-derived cell line) and the E-10 clone of MDA-MB-231 (a human breast carcinoma-derived cell line). Cytoxicity was measured using a conventional assay for viability with a tetrazolium salt (MTS). Cells were grown in media containing the CMTs at concentrations ranging from 5 μM to 100 μM for two days. The cells were then incubated with the MTS for several hours before removal of the supernatant medium for determination of formazan, which is generated only by the viable cells. Results are expressed as percent cytotoxicity, which is simply the percent decline in measured formazan concentration in the sampled medium.
# TSU-PR1 cells = assay: Matrigel invasion assay (Boyden chamber, MTT), TSU-PR1; format: cell-based, human; settings: Homo sapiens; for IC50: TSU-PR1, 48 hr, read-out: 50% inhibitory dose (IC50), Matrigel invasion
# Description: In this method, 4×10^5 tumor cells were plated on the top chamber of the Boyden chemotaxis assay chambers (Costar Transwell plates). The bottom side of the chamber was a 12 μm-pore polycarbonate filter layered with 0.5 mm thick layer of Matrigel. The bottom well contained a chemoattractant, a serum-free culture-conditioned medium from FHS 733 cells, a line of human fetal lung fibroblasts (ATCC No. HTB-157). Cancer cells (4×10^5) were plated in the top wells of the plates. Doxycycline or CMTs were diluted in a serum-free medium to 5 μg/mL, and were added to both top and bottom chambers. […] After 48 hr incubation, MTT was added to both the top and bottom wells (0.5 mg/mL), and incubation was continued for 4 hr. Wells were then emptied, and the cells from the undersides of the filter were pooled with those in the bottom wells with a filter tip. The reduced MTT (formazan) from top and bottom wells was solubilized with DMSO overnight, and absorbance (O.D.) at 515 nm was measured. The ratio of the O.D. from the bottom wells to that of the total (i.e., O.D. of top plus bottom wells) was taken as the invasive potential. […] The MTT assay procedure also normalizes the coincident inhibition due to the cytotoxic effects of the agents under investigation. Results presented are from three independent experiments.
# [5] = 40 mg/kg daily oral gavage from day of implant
SMILES,Doubling Time (C8161 cells) [h],GI50 (TSU PR-1) [µM],GI50 (MAT LyLu) [µM],tumor growth rate (time to reach tumor volume of 3 cm^3) (Dunning MAT LyLu tumor [1]) [days],decrease in the number of lung metastases (Dunning MAT LyLu tumor [1]) [%],remission of palpable tumors (rats) (Dunning MAT LyLu tumor [1]) [%],"cytotoxicity at 2 days, 5 µM [2] [%]",metastatic tumor foci in lungs (Dunning MAT LyLu tumor [3]; [5]) [MTF/rat],GI50 (DU 145) [µM],GI50 (PC-3) [µM],GI50 (ALVA 101) [µM],"cytotoxicity at 2 days, 5 µM [4] [%]","cytotoxicity at 2 days, 10 µM [4] [%]","cytotoxicity at 2 days, 20 µM [4] [%]","cytotoxicity at 2 days, 50 µM [4] [%]","cytotoxicity at 2 days, 100 µM [4] [%]",IC50 (TSU-PR1 cells) [µg/mL],further results
"C[C@H]1c2cccc(O)c2C(=O)C2=C(O)[C@]3(O)C(=O)C(C(N)=O)=C(O)[C@@H](N(C)C)[C@@H]3[C@@H](O)[C@@H]21 [Doxycycline, 6α-deoxy-5-hydroxy-tetracycline, reference compound]",22,41 ± 11,20 ± 6.4,16.7 ± 1.9,33±7.0,20,0,43.6±18.8,43.6 ± 9.36,36.4 ± 2.5,36.6 ± 2.42,0,0,45.7,58.8,66.5,27 ± 4.3,"tumor incidence (Dunning MAT LyLu tumor [1]; 40 mg/kg daily, begun 7 days before implant, separate experiments): > 90%; cytotoxicity at 2 days, 10 µM ([2]; 10 μM): 0%; cytotoxicity at 2 days, 20 µM ([2]; 20 μM): 4.5%; cytotoxicity at 2 days, 50 µM ([2]; 50 μM): 24.2%; cytotoxicity at 2 days, 100 µM ([2]; 100 μM): 29.5%; metastatic tumor foci in lungs (Dunning MAT LyLu tumor [3]; 20 mg/kg daily oral gavage from day of implant): 39.7±17.2 MTF/rat; inhibition at 5 µg/mL (TSU-PR1 cells; TSU-PR1, 5 μg/mL, 48 hr): 8 ± 1.8%"
"NC(=O)C1=C(O)CC2CC3Cc4cccc(O)c4C(=O)C3=C(O)C2(O)C1=O (stereo not shown) [CMT-3, 6-demethyl-6-deoxy-4-de(dimethylamino)tetracycline]",28,14.7 ± 2.64,5.2 ± 1.9,20.2 ± 3.5,58±8,30,0,28.9±15.4,5.06 ± 1.18,10.6 ± 2.1,6.82 ± 0.75,17,28.8,52,79,85.6,1.7 ± 0.31,"increase of doubling time (C8161 cells; versus DMSO): ~27%; tumor incidence lower than control or doxycycline groups by (Dunning MAT LyLu tumor [1]; 40 mg/kg, predosing): 55%±18; tumor remission (inhibition of tumor incidence) (Dunning MAT LyLu tumor [1]; 40 mg/kg, predosing): tumor remission (inhibition of tumor incidence) occurred; gain in body weights (Dunning MAT LyLu tumor [1]; at termination (6-month post-treatment observation), control 3%): 12%; decrease in MTF versus controls (Dunning MAT LyLu tumor [1]; predosing): 37.5%; MTF in treated animals (Dunning MAT LyLu tumor [1]; predosing, animals with tumors ≧10 cm^3, controls 74.2±6.4): 46.3±6.7; tumor incidence (Dunning MAT LyLu tumor [1]; preparation of CMT-3 of greater purity): 43%; primary tumor growth versus control group (regression analysis of tumor volumes) (Dunning MAT LyLu tumor [3]; 20 mg/kg or 40 mg/kg): no significant difference; reduction in MTF relative to the control group (Dunning MAT LyLu tumor [3]; 40 mg/kg (10 mg/rat)): 51%; time from injection of cells to 3 cm^3 tumor (Dunning MAT LyLu tumor [3]; control 13.57±2.12 days): 14.0 ± 1.9 days; number of lung metastases (Dunning MAT LyLu tumor [3]; oral gavage daily for 21 days following implant, controls 59.5±13.9): 28.9±15.4 sites/animal"
